Values quoted from earlier work as cited in patent US11273137B2, “Methods and compositions to prevent and treat disorders associated with mutations in the ODC1 gene” (Board of Trustees of Michigan State University, priority 2018, dated 2022).

What was measured:
[1] = system: transgenic mice overexpressing c-terminally deleted ODC (p.P427X)
[2] = transgenic mice with c-terminally deleted ODC

NCCC[C@](N)(C(=O)O)C(F)F [DFMO, alpha-difluoromethylornithine]
water solubility: water soluble
phenotypic changes (skin and hair follicle abnormalities, alopecia) ([1]; heterozygous transgenic mice with c-terminal 34 aa ODC deletion targeted to the skin): reversible
hair growth ([1]; mice with complete hair loss): partially restored hair growth
hair loss [1, 2]: prevented hair loss
reappearance of normal follicles [1, 2]: activated reappearance of normal follicles
